Measurements published in patent US20090305894A1, “use of sulfonanilides as herbicide” (priority 2005, published 2009).

Tests used:
Type in all cases: in vivo
[1] = system: paddy rice seedlings (cultivar: Nihonbare); assay: Herbicide damage on transplanted paddy rice (Test Example 2, Table 9); conditions: 60 g ai/ha, applied to water surface 5 days after transplantation, rated after 3 weeks; 100% = complete withering, 0% = no damage
Protocol: (§1) The formulations of active compounds were obtained as emulsions by mixing 1 part by weight of the active compound with the carrier and emulsifier in the described amounts. The formulations were diluted with water so as to adjust a prescribed dosage.
In a greenhouse each three paddy rice seedlings (cultivar: Nihonbare) were transplanted (transplantation depth 2 cm) in each pot filled with 500 cm^2 of paddy field soil and covered with water in about 2 to 3 cm depth. After 5 days from the transplantation, prescribed diluted solutions of the formulations of the respective active compounds obtained in the same manner as in Test Example 1 were applied to the water surface of each pot. After the treatment, the water depth of 3 cm was kept. The herbicide damage was investigated after 3 weeks of the treatment. The herbicide damage was rated as 100% in the case of complete withering and 0% in the case of no herbicide damage. When the herbicide damage was 20% or lower, the safety as a paddy rice herbicide was evaluated to be excellent. As the representative examples, the test results of the compound Nos. 3, 4, 5, 6, 7, 70, 115, 127 and 128, and comparative compound C-2 are shown in Table 9.

[2] = system: Lindernia procumbens Philcox (resistant to sulfonylurea type herbicide); assay: Herbicidal efficacy test to weeds resistant to sulfonylurea type herbicide (Test Example 1, applied on water surface, Table 8); conditions: 60 g ai/ha, applied on water surface at beginning of sprouting, rated after 3 weeks; 100% = complete withering, 0% = no effect
Protocol: (§2) Preparation of formulation of active compound
(§3) Carrier: DMF 5 parts by weight
(§4) Emulsifier: benzyloxypolyglycol ether 1 part by weight
as §1
(§5) In a greenhouse respective seeds of Scirpus juncoides Roxburgh (from Hokkaido, Japan) and Lindernia procumbens Philcox (from Saitama, Japan), which are confirmed to have resistance to a sulfonylurea type herbicide, were inoculated in pots filled with 500 cm^2 of paddy field soil and water was poured to the pot in about 2 to 3 cm depth. At the beginning of sprouting of the weeds, prescribed diluted solutions of the formulations of the respective active compounds obtained by the above-mentioned manner were applied on the water surface. After the treatment water depth of 3 cm was kept. The herbicidal effect was investigated after 3 weeks of the treatment. The herbicidal effect was rated as 100% in the case of complete withering and 0% in the case of no herbicidal effect. When the herbicidal effect was 80% or higher, the practical effectiveness as herbicides is recognized. As the representative examples, the test results of the compound Nos. 1, 3, 4, 5, 6, 7, 13, 70, 127, 128 and 130 are shown in Table 8.

[3] = system: Scirpus juncoides Roxburgh (resistant to sulfonylurea type herbicide); assay: as above; conditions: 60 g ai/ha, applied on water surface at beginning of sprouting, rated after 3 weeks; 100% = complete withering, 0% = no effect
Protocol: as §2, §3, §4, §1, §5

rice (cultivar: Balilla) [4] = assay: Irrigated directly seeded paddy rice, herbicide damage, spraying to soil before sprouting (Test Example 3, Table 10); conditions: 20 g ai/ha, rated after 3 weeks
Protocol: as §1
(§6) In a greenhouse seeds of rice (cultivar: Balilla) and weeds (Brachiaria plantaginea, Cyperus esculntus, Cyperus iria L., Echinochloa colonum, Leptochloa chinensis, Ipomoea purpurea, and Sesbania exaltata) were inoculated on the surface layers of pots filled with 100 cm^2 of paddy field soil and covered with soil. Water was poured to produce wet state (water level 0 cm). The prescribed diluted solutions of the formulations of the respective active compounds obtained in the same manner as in Test Example 1 were sprayed on the soil of some pots on completion of the seeding and the solutions of the agents were sprayed over the plants from the above in the rest of the pots after the respective sample plants were grown in first- to third-1 eaf stage in the greenhouse. After one day from the treatment with the compound, water was poured in 3 cm depth. The herbicidal effects and herbicide damage on rice of the respective compounds were investigated after 3 weeks from the treatment. The herbicidal effect and herbicide damage on the rice were rated as 100% in the case of complete withering and 0% in the case of no herbicidal effect or no harm. When herbicidal effect was 80% or higher, it was determined to be practically applicable as herbicides. When the herbicide damage was 20% or lower, the safety of the herbicide was evaluated to be excellent.

Cyperus iria L. [5] = assay: Irrigated directly seeded paddy rice, herbicidal effect, spraying to stems and leaves after sprouting (Test Example 3, Table 11); conditions: 20 g ai/ha, rated after 3 weeks
Protocol: as §1, §6

Ipomoea purpurea [6] = assay: as above; conditions: 20 g ai/ha, rated after 3 weeks
Protocol: as §1, §6

Echinochloa colonum [7] = assay: as above; conditions: 20 g ai/ha, rated after 3 weeks
Protocol: as §1, §6

Leptochloa chinensis [8] = assay: as above; conditions: 20 g ai/ha, rated after 3 weeks
Protocol: as §1, §6

Brachiaria plantaginea [9] = assay: as above; conditions: 20 g ai/ha, rated after 3 weeks
Protocol: as §1, §6

Sesbania exaltata [10] = assay: as above; conditions: 20 g ai/ha, rated after 3 weeks
Protocol: as §1, §6

Cyperus esculntus [11] = assay: as above; conditions: 20 g ai/ha, rated after 3 weeks
Protocol: as §1, §6

Cyperus iria L. [12] = assay: Irrigated directly seeded paddy rice, herbicidal effect, spraying to soil before sprouting (Test Example 3, Table 10); conditions: 20 g ai/ha, rated after 3 weeks
Protocol: as §1, §6

Ipomoea purpurea [13] = assay: as above; conditions: 20 g ai/ha, rated after 3 weeks
Protocol: as §1, §6

Echinochloa colonum [14] = assay: as above; conditions: 20 g ai/ha, rated after 3 weeks
Protocol: as §1, §6

Leptochloa chinensis [15] = assay: as above; conditions: 20 g ai/ha, rated after 3 weeks
Protocol: as §1, §6

Brachiaria plantaginea [16] = assay: as above; conditions: 20 g ai/ha, rated after 3 weeks
Protocol: as §1, §6

Sesbania exaltata [17] = assay: as above; conditions: 20 g ai/ha, rated after 3 weeks
Protocol: as §1, §6

Cyperus esculntus [18] = assay: as above; conditions: 20 g ai/ha, rated after 3 weeks
Protocol: as §1, §6

rice (cultivar: Balilla) [19] = assay: Irrigated directly seeded paddy rice, herbicide damage, spraying to stems and leaves after sprouting (Test Example 3, Table 11); conditions: 20 g ai/ha, rated after 3 weeks
Protocol: as §1, §6

Echinochloa crus-gali = assay: Herbicidal effect on weeds in dry field, spraying treatment on soil before sprouting (Test Example 4, Table 12); conditions: 80 g ai/ha, spraying to soil before sprouting, rated after 3 weeks
Protocol: as §1, §6
(§7) In a greenhouse one seed each of crops in dry field (Triticum aestivum and Glycine max) and weeds (Echinochloa crus-gali and Setaria vividis) were inoculated in the surface layer in one pot filled with 16 cm^2 of dry field soil and covered with soil. The prescribed diluted solutions of the formulations of the respective active compounds obtained in the same manner as in Test Example 1 were sprayed to the soil upon the inoculation. The herbicidal effect and herbicide damage on crops of the respective compounds were investigated after 3 weeks from the treatment. Evaluations of the herbicidal effect and herbicide damage were carried out in the same manner as in Test Example 3. As the representative example, the test results of compound No. 1 and 24, and the comparative compound C-1 are shown in Table 12.

Setaria vividis = assay: as above; conditions: 80 g ai/ha, spraying to soil before sprouting, rated after 3 weeks
Protocol: as §1, §6, §7

Glycine max = assay: Herbicide damage to crops in dry field, spraying treatment on soil before sprouting (Test Example 4, Table 12); conditions: 80 g ai/ha, rated after 3 weeks
Protocol: as §1, §6, §7

Triticum aestivum = assay: as above; conditions: 80 g ai/ha, rated after 3 weeks
Protocol: as §1, §6, §7

COCc1cccc(C(O)c2nc(OC)cc(OC)n2)c1NS(=O)(=O)C(F)F (stereo not shown) [C-2, reference compound]
Herbicide damage on transplanted paddy rice [1]: 30%

CCOc1cccc(C(O)c2nc(OC)cc(OC)n2)c1NS(=O)(=O)C(F)F (stereo not shown) [compound 130]
Herbicidal effect to sulfonylurea resistant weeds: Lindernia procumbens Philcox (from Saitama pref.) [2]: 100% | Herbicidal effect to sulfonylurea resistant weeds: Scirpus juncoides Roxburgh (from Hokkaido) [3]: 100%

COc1cc(OC)nc(C(O)c2c(F)ccc(F)c2NS(=O)(=O)C(F)F)n1 (stereo not shown) [compound 7]
Herbicide damage on transplanted paddy rice [1]: 10% | Herbicidal effect to sulfonylurea resistant weeds: Lindernia procumbens Philcox (from Saitama pref.) [2]: 100% | Herbicidal effect to sulfonylurea resistant weeds: Scirpus juncoides Roxburgh (from Hokkaido) [3]: 100%

COc1nc(OC)nc(C(O)c2cccc(F)c2N(C)S(=O)(=O)C(F)F)n1 (stereo not shown) [compound 9]
Herbicide damage on Rice (rice (cultivar: Balilla) [4]): 20% | Herbicidal effect Cyperusiria L. (Cyperus iria L. [5]): 100% | Herbicidal effect Ipomoea purpurea (Ipomoea purpurea [6]): 100% | Herbicidal effect Echinochloa colonum (Echinochloa colonum [7]): 100% | Herbicidal effect Leptochloa chinensis (Leptochloa chinensis [8]): 60% | Herbicidal effect Brachiaria plantaginea (Brachiaria plantaginea [9]): 100% | Herbicidal effect Sesbania exaltata (Sesbania exaltata [10]): 100% | Herbicidal effect Cyperus esculntus (Cyperus esculntus [11]): 100% | Herbicidal effect Cyperusiria L. (Cyperus iria L. [12]): 100% | Herbicidal effect Ipomoea purpurea (Ipomoea purpurea [13]): 70% | Herbicidal effect Echinochloa colonum (Echinochloa colonum [14]): 100% | Herbicidal effect Leptochloa chinensis (Leptochloa chinensis [15]): 80% | Herbicidal effect Brachiaria plantaginea (Brachiaria plantaginea [16]): 70% | Herbicidal effect Sesbania exaltata (Sesbania exaltata [17]): 100% | Herbicidal effect Cyperus esculntus (Cyperus esculntus [18]): 100% | Herbicide damage on Rice (rice (cultivar: Balilla) [19]): 20%

COc1cc(OC)nc(C(O)c2ccc(F)c(OC)c2NS(=O)(=O)C(F)F)n1 (stereo not shown) [compound 127]
Herbicide damage on transplanted paddy rice [1]: 0% | Herbicidal effect to sulfonylurea resistant weeds: Lindernia procumbens Philcox (from Saitama pref.) [2]: 90% | Herbicidal effect to sulfonylurea resistant weeds: Scirpus juncoides Roxburgh (from Hokkaido) [3]: 100%

COC(=O)c1ccccc1CS(=O)(=O)NC(=O)Nc1nc(OC)cc(OC)n1 [C-4, Bensulfuron-methyl, reference compound]
Herbicidal effect to sulfonylurea resistant weeds: Lindernia procumbens Philcox (from Saitama pref.) [2]: 10% | Herbicidal effect to sulfonylurea resistant weeds: Scirpus juncoides Roxburgh (from Hokkaido) [3]: 10%

CCOc1ccccc1OS(=O)(=O)NC(=O)Nc1nc(OC)cc(OC)n1 [C-3, Ethoxysulfuron, reference compound]
Herbicidal effect to sulfonylurea resistant weeds: Lindernia procumbens Philcox (from Saitama pref.) [2]: 10% | Herbicidal effect to sulfonylurea resistant weeds: Scirpus juncoides Roxburgh (from Hokkaido) [3]: 10%

COc1nc(OC)nc(C(=O)c2cccc(OC)c2N(C)S(=O)(=O)C(F)F)n1 [compound 115]
Herbicide damage on transplanted paddy rice [1]: 0%

COc1cc(OC)nc(C(O)c2ccc(Cl)c(OC)c2NS(=O)(=O)C(F)F)n1 (stereo not shown) [compound 128]
Herbicide damage on transplanted paddy rice [1]: 0% | Herbicidal effect to sulfonylurea resistant weeds: Lindernia procumbens Philcox (from Saitama pref.) [2]: 100% | Herbicidal effect to sulfonylurea resistant weeds: Scirpus juncoides Roxburgh (from Hokkaido) [3]: 90%

COc1cc(OC)nc(C(O)c2ccc(F)c(C)c2NS(=O)(=O)C(F)F)n1 (stereo not shown) [compound 70]
Herbicide damage on transplanted paddy rice [1]: 10% | Herbicidal effect to sulfonylurea resistant weeds: Lindernia procumbens Philcox (from Saitama pref.) [2]: 90% | Herbicidal effect to sulfonylurea resistant weeds: Scirpus juncoides Roxburgh (from Hokkaido) [3]: 100%

COc1cc(OC)nc(C(O)c2ccc(F)cc2NS(=O)(=O)C(F)F)n1 (stereo not shown) [compound 5]
Herbicide damage on transplanted paddy rice [1]: 0% | Herbicidal effect to sulfonylurea resistant weeds: Lindernia procumbens Philcox (from Saitama pref.) [2]: 100% | Herbicidal effect to sulfonylurea resistant weeds: Scirpus juncoides Roxburgh (from Hokkaido) [3]: 100%

COc1cc(OC)nc(C(O)c2ccc(Cl)c(F)c2NS(=O)(=O)C(F)F)n1 (stereo not shown) [compound 4, 2-fluoro-3-chloro-6-[1-(4,6-dimethoxypyrimidin-2-yl)-1-hydroxymethyl]-N-difluoromethanesulfonanilide]
Herbicide damage on transplanted paddy rice [1]: 10% | Herbicidal effect to sulfonylurea resistant weeds: Lindernia procumbens Philcox (from Saitama pref.) [2]: 100% | Herbicidal effect to sulfonylurea resistant weeds: Scirpus juncoides Roxburgh (from Hokkaido) [3]: 100%

COc1cc(OC)nc(C(O)c2c(F)cccc2NS(=O)(=O)C(F)F)n1 (stereo not shown) [compound 6]
Herbicide damage on transplanted paddy rice [1]: 10% | Herbicidal effect to sulfonylurea resistant weeds: Lindernia procumbens Philcox (from Saitama pref.) [2]: 100% | Herbicidal effect to sulfonylurea resistant weeds: Scirpus juncoides Roxburgh (from Hokkaido) [3]: 100%

COCN(c1c(F)cccc1C(=O)c1nc(OC)nc(OC)n1)S(=O)(=O)C(F)F [compound 24]
Herbicidal effect Echinochloa crus-gali (Echinochloa crus-gali): 80% | Herbicidal effect Setaria vividis (Setaria vividis): 90% | Herbicide damage Glycine max (Glycine max): 0% | Herbicide damage Triticum aestivum (Triticum aestivum): 0%

COc1cc(OC)nc(C(O)c2ccc(F)c(F)c2NS(=O)(=O)C(F)F)n1 (stereo not shown) [Compound No. 3, 2,3-Difluoro-6-[1-(4,6-dimethoxypyrimidin-2-yl)-1-hydroxymethyl]-N-difluoromethanesulfonanilide]
Herbicide damage on transplanted paddy rice [1]: 10% | Herbicidal effect to sulfonylurea resistant weeds: Lindernia procumbens Philcox (from Saitama pref.) [2]: 100% | Herbicidal effect to sulfonylurea resistant weeds: Scirpus juncoides Roxburgh (from Hokkaido) [3]: 100%

COc1nc(OC)nc(C(=O)c2cccc(Cl)c2N(C)S(=O)(=O)C(F)F)n1 [compound 2]
Herbicide damage on Rice (rice (cultivar: Balilla) [4]): 30% | Herbicidal effect Cyperusiria L. (Cyperus iria L. [5]): 100% | Herbicidal effect Ipomoea purpurea (Ipomoea purpurea [6]): 100% | Herbicidal effect Echinochloa colonum (Echinochloa colonum [7]): 100% | Herbicidal effect Brachiaria plantaginea (Brachiaria plantaginea [9]): 100% | Herbicidal effect Sesbania exaltata (Sesbania exaltata [10]): 100% | Herbicidal effect Cyperus esculntus (Cyperus esculntus [11]): 100% | Herbicidal effect Cyperusiria L. (Cyperus iria L. [12]): 100% | Herbicidal effect Ipomoea purpurea (Ipomoea purpurea [13]): 80% | Herbicidal effect Echinochloa colonum (Echinochloa colonum [14]): 80% | Herbicidal effect Leptochloa chinensis (Leptochloa chinensis [15]): 90% | Herbicidal effect Brachiaria plantaginea (Brachiaria plantaginea [16]): 80% | Herbicidal effect Sesbania exaltata (Sesbania exaltata [17]): 80% | Herbicidal effect Cyperus esculntus (Cyperus esculntus [18]): 90% | Herbicide damage on Rice (rice (cultivar: Balilla) [19]): 10%
